From ChEMBL document CHEMBL1139221, “2-(4-Chlorobenzyl)-3-hydroxy-7,8,9,10-tetrahydrobenzo[H]quinoline-4-carboxylic acid (PSI-697): identification of a clinical candidate from the quinoline salicylic acid series of P-selectin antagonists” (J Med Chem, 2007)
Values after ≈ are worked out from the molar mass of the structure shown.

What was measured:
[1] = Bioavailability in Sprague-Dawley rat; format: ADME, organism-based; conditions: in vivo
[2] = Inhibition of leukocyte rolling in mouse at 50 mg/kg, po; format: functional
Mus musculus [3] = organism: Mus musculus; experiment: AUC in C57 mouse; format: ADME, organism-based, Plasma; conditions: in vivo
[4] = Bioavailability in C57 mouse; format: ADME, organism-based; conditions: in vivo
Rattus norvegicus [5] = organism: Rattus norvegicus; experiment: AUC in Sprague-Dawley rat; format: ADME, organism-based, Plasma; conditions: in vivo
P-selectin = target: T1, P-selectin (Homo sapiens, UniProt P16109); experiment: Inhibition of P-Selectin by Biacore assay
T1 sequence (P16109 whole entry): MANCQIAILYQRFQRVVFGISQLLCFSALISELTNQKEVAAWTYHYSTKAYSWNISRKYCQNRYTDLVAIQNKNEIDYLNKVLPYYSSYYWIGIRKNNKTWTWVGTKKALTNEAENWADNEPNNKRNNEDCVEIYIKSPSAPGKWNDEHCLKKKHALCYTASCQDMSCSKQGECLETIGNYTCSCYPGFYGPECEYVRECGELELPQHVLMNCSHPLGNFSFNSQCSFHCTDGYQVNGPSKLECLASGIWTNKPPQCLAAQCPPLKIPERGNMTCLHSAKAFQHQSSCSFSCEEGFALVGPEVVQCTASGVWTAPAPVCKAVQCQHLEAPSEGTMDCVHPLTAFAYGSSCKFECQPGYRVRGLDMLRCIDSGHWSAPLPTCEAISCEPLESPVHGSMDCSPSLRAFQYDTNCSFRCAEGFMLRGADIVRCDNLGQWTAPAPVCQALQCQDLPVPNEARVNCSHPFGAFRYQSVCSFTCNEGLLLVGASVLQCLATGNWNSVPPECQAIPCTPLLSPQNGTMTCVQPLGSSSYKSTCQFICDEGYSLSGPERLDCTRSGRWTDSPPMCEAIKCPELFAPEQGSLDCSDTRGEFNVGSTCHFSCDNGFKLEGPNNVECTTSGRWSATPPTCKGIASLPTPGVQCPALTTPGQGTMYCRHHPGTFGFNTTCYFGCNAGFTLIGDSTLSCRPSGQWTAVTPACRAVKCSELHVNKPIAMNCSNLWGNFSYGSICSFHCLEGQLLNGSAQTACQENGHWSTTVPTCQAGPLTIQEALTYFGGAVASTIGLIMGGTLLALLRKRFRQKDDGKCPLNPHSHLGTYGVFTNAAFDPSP

[6] = Stability in rat liver microsome; format: ADME; conditions: liver microsomes
[7] = Solubility at pH 7.4; format: physicochemical; conditions: buffer
[8] = Oral bioavailability in Beagle dog at 15 mg/kg; format: ADME, organism-based, Canis lupus familiaris; conditions: in vivo
Rattus norvegicus [9] = experiment: Inhibition of neointimal hyperplasia in Sprague-Dawley rat carotid ballon injury model at 30 mg/kg, po; format: functional
Mus musculus [10] = experiment: Inhibition of aortic lesion in apo E -/- mouse model at 100 mg/kg; format: functional; conditions: Aorta

| Compound | bioavailability [1] | AUC/dose (Mus musculus [3]) | bioavailability [4] | AUC/dose (Rattus norvegicus [5]) | IC50 (P-selectin) | half-life [6] | solubility [7] | bioavailability [8] | inhibition in vivo at 50 mg/kg [2] | inhibition in vivo at 30 mg/kg (Rattus norvegicus [9]) | inhibition in vivo at 100 mg/kg (Mus musculus [10]) |
| --- | --- | --- | --- | --- | --- | --- | --- | --- | --- | --- | --- |
| O=C(O)c1c(O)c(Cc2c[nH]c3ccccc23)nc2c3c(ccc12)CCCC3 | 41% | 0.218 µg·h/mL | 30% | 0.607 µg·h/mL | 225 µM | – | – | – | 62% | – | – |
| O=C(O)c1c(O)c(Cc2ccccc2Cl)nc2c3c(ccc12)CCCC3 | – | – | – | – | 123 µM | 6 min | – | – | – | – | – |
| O=C(O)c1c(O)c(Cc2c[nH]c3ccc(Cl)cc23)nc2c3c(ccc12)CCCC3 | 5% | – | – | 0.096 µg·h/mL | 175 µM | – | 20 µg/mL (≈ 49.2 µM) | – | – | – | – |
| O=C(O)c1c(O)c(Cc2c[nH]c3ccc(Cl)cc23)nc2c(C(F)(F)F)cccc12 | – | – | – | – | 250 µM | – | – | – | 23% | – | – |

Continued, in another order:

| bioavailability [1] | AUC/dose (Mus musculus [3]) | bioavailability [4] | AUC/dose (Rattus norvegicus [5]) | IC50 (P-selectin) | half-life [6] | solubility [7] | bioavailability [8] | Compound | inhibition in vivo at 50 mg/kg [2] | inhibition in vivo at 30 mg/kg (Rattus norvegicus [9]) | inhibition in vivo at 100 mg/kg (Mus musculus [10]) |
| --- | --- | --- | --- | --- | --- | --- | --- | --- | --- | --- | --- |
| 20% | 1.5 µg·h/mL | 100% | 0.62 µg·h/mL | 125 µM | – | – | 58% | O=C(O)c1c(O)c(Cc2ccc(Cl)cc2)nc2c3c(ccc12)CCCC3 [PSI-697] | 56% | 40% | 49% |
| – | – | – | – | 138 µM | 6 min | – | – | O=C(O)c1c(O)c(Cc2cccc(Cl)c2)nc2c3c(ccc12)CCCC3 | – | – | – |
